Laboratory results from patent US12441732B2, “Potassium salt crystal form B of phosphodiesterase type 5 inhibitor, and preparation method and use therefor” (Guangzhou Huazhen Pharmaceutical Co., Ltd, priority 2019, dated 2025).
Values after ≈ are worked out from the molar mass of the structure shown. Where two headings read alike, the source gives them in different places.

Key:
PAH rats [1] = assay: Penile erectile function observation in PAH rats; format: in vivo, SD rats
Experimental: After gavage treatment, penile erection in the animals was observed, wherein the time of penile erection phenomenon after gavage was recorded in each group.

PDE5 = PDE5 (Homo sapiens, UniProt O76074); conditions: background statement; cited from earlier work
PAH rats [2] = assay: Monocrotaline-induced pulmonary arterial hypertension (PAH) rats: RVSP, RVMI, pulmonary arterioles; format: in vivo, SD rats; conditions: for RVMI, RV/(LV+S) / RVSP: 3 weeks after MCT
From the text: SD rats were randomly divided into 8 groups, 15 rats/group: a normal control group (Vehicle); a PAH model group (MCT); a PAH+potassium salt crystal form B of WYQ mini-dose group (hereafter referring to as a mini-dose group); a PAH+potassium salt crystal form B of WYQ low-dose group (hereafter referring to as a low-dose group); a PAH+potassium salt crystal form B of WYQ medium-dose group (hereafter referring to as a medium-dose group); a PAH+potassium salt crystal form B of WYQ high-dose group (hereafter referring to as a high-dose group); a PAH+Sildenafil control group (hereafter referring to as a Sildenafil group); a PAH+Tadalafil control group (hereafter referring to as a Tadalafil group).
MCT was fully dissolved with 1M dilute HCl, diluted with double-distilled water, and adjusted to pH=7.2 with 3M NaOH, thereby preparing a MCT solution with a final concentration of 20 mg/ml.
The normal control group was injected subperitoneally with normal saline (50 mg/kg), and the rest of the groups were injected subperitoneally with MCT (50 mg/kg) at one time.
Mini-dose group: the potassium salt crystal form B of WYQ was prepared into a 0.4 mg/ml medicinal solution (ready to use) with normal saline, and administered by gavage at the dose of 2 mg·kg^−1d^−1;
Low-dose group: the potassium salt crystal form B of WYQ was prepared into a 1 mg/ml medicinal solution (ready to use) with normal saline, and administered by gavage at the dose of 5 mg·kg^−1d^−1;
Medium-dose group: the potassium salt crystal form B of WYQ was prepared into a 2 mg/ml medicinal solution (ready to use) with normal saline, and administered by gavage at the dose of 10 mg·kg^−1d^−1;
High-dose group: the potassium salt crystal form B of WYQ was prepared into a 4 mg/ml medicinal solution (ready to use) with normal saline, and administered by gavage at the dose of 20 mg·kg^−1d^−1;
Sildenafil group: Sildenafil was prepared into a 5 mg/ml medicinal solution (ready to use) with 0.5% sodium carboxymethyl cellulose, and administered by gavage at the dose of 25 mg·kg^−1d^−1;
Tadalafil group: Tadalafil was prepared into a 2 mg/ml medicinal solution (ready to use) with 0.5% sodium carboxymethyl cellulose, and administered by gavage at the dose of 10 mg·kg^−1d^−1.
The day of injection was the starting date of the experiment, and the administration was started after 7 days of modeling, once a day for 14 consecutive days.
After 3 weeks from the starting date of the experiment, RVSP data were collected on RM-6240E polygraph for each group of rats.
After 3 weeks from the starting date of the experiment, the animals were anesthetized, hemodynamically tested (RM-6240E polygraph), and sacrificed after manometry. The cardiopulmonary tissues were immediately dissected, and the right and left atria and great vessels were cut off along the atrioventricular junction with ophthalmic scissors to separate the right ventricle (RV) and left ventricular wall plus septum (LV+S), which was absorbed water with filter paper and weighed respectively, and RV/(LV+S), i.e., RVMI was calculated.
After 3 weeks from the starting date of the experiment, rats were heparinized with heparin (50 IU/100 g, intraperitoneal injection) for 5 min. The animals were anesthetized by injection of 20% urethane solution (0.5 ml/100 g), and the blood pressure indexes were detected and recorded.
The heart was dissected, the right ventricular wall was separated, and the left ventricle and the septum were separated, which were absorbed water with filter paper and weighed respectively to calculate the right ventricular hypertrophy index.
The lungs were dissected, wherein the right lung was ligated, and the left lung lobe was perfused with a fixative (4% paraformaldehyde) and then fixed in the fixative, dehydrated by ethanol gradient, allowed to become transparent by using xylene, immersed in wax, embedded in paraffin, sectioned (4 μm), stained with hematoxylin-eosin (HE), sealed with neutral gum and then observed under a microscope. […]

[3] = background statement; cited from earlier work
IPF rats = assay: Bleomycin-induced idiopathic pulmonary fibrosis (IPF) rats; format: in vivo, SD rats; conditions: 23 days
Experimental: The animals were purchased, and modeling was started after 3-7 days of acclimatization. The animals were weighed and anesthetized by inhalation with isoflurane. After the animals were confirmed to be anesthetized, the neck was disinfected, and the skin of the neck was cut. The main trachea was exposed by bluntly dissecting the muscle, a small incision was made between the tracheal rings, into which a PE-20 tube was inserted until the left main bronchus, and bleomycin was injected directly (dose: 3 mg/kg, volume: 1.0 ml/kg). The trachea and skin were sutured. After the surgery, the animals were kept warm at 37° C. under an electric blanket until the animals were fully awake and confirmed to be able to feed and drink freely before returning the animals to their normal feeding cages.
50 mg/kg Nintedanib group (BIBF-50 mg/kg): BIBF was prepared into a solution of 10 mg/ml with 0.5% sodium carboxymethyl cellulose and administered by gavage at a dose of 50 mg/kg^−1·d^−1;
Each group of rats was administered by gavage on the day of modeling, once a day for 23 days in total.
After 23 days of continuous administration, all animals in each group were euthanized by intraperitoneal injection of pentobarbital sodium anesthetic (100 mg/kg) in accordance with the KCl standard operating procedure for animal euthanasia. Whole-body perfusion was performed by low-temperature PBS, and then fixation was performed by whole-body formalin perfusion. The left lung was taken and perfused with an equal amount of formalin fluid for weighing and subsequent lung pathology-related tests.
Left lung gross pathological examination: after perfusion with an equal amount of formalin, the wet weight of the left lung after the perfusion was weighed and recorded with a microbalance; the volume of the left lung after perfusion was measured and recorded using a toe volume measuring instrument.
The whole lung of the left lung was dehydrated according to the KCl pathology standard SOPs, and paraffin blocks were prepared. The whole lung of the left lung was paraffin-sectioned at a thickness of 3-4 μm. HE staining and Masson Trichrome staining were performed according to the KCl pathology standard staining SOPs, and the slice panoramic scanning was carried out by a Hamamatsu NanoZoomer Digital Pathology (S210) slice scanner. The lung lesion area was calculated by Masson Trichrome staining of the sections, and the left lung fibrosis area (%) was the percentage of fibrosis area in the left lung area; 10 randomly selected fields of view of 1 mm^2 in the lesion area were semi-quantitatively scored by the pathologist under double-blind conditions according to the Ashcroft scoring system (as shown in Table 8 and FIG. 40).

[4] = Dynamic solubility test in water, SGF, FaSSIF, FeSSIF at 37° C.; format: physicochemical; conditions: for solubility at 1 h / solubility at 4 h / solubility at 24 h: thermodynamic from solid, read-out: solubility (S)
[5] = Solid-state stability test (one week, open); format: physicochemical; conditions: for HPLC purity: Purity after placement / Purity after placement/Starting purity / Crystal form change: open; for Crystal form change: XRPD
Experimental: The solid-state stability of the potassium salt crystal form B prepared in Embodiment 1 was tested, in which 5.22 mg of potassium salt crystal form B samples were weighed and left open at 25° C./60% RH, and 5.19 mg of potassium salt crystal form B samples were weighed and left open at 40° C./75% RH. After one week, all samples were subjected to XRPD characterization (see XRPD parameter settings in Table 1) and HPLC purity test (Agilent 1100) to detect changes in crystal form and purity, wherein HPLC purity test parameters were shown in Table 6. Meanwhile, 4.59 mg of a compound WYQ sample was weighed and left open at 25° C./60% RH, and 5.11 mg of the compound WYQ sample was weighed and left open at 40° C./75% RH. The solid-state stability of these samples were performed under the same conditions for comparative reference.

[6] = Sildenafil group 25 mg·kg^−1d^−1
[7] = Sildenafil group 25 mg·kg^−1d^−1 gavage once a day for 14 days
[8] = Tadalafil group 10 mg·kg^−1d^−1 gavage once a day for 14 days

## CCCc1nn(C)c2c(=O)[nH]c(-c3cc(S(=O)(=O)N4CCN(C)CC4)ccc3OCC)nc12 [Sildenafil, reference compound]
PAH rats [1]; Sildenafil group 25 mg·kg^−1d^−1, over 30 minutes after gavage
  rats showing penile erection: 80%
PDE5
  selective effect on PDE5 relative to PDE6: 10 times
PAH rats [2]; [6]
  WT % of pulmonary arterioles vs PAH model group: not statistically significant
  tunica media thickness of pulmonary arterioles vs PAH model group: decrease
PAH rats [2]; [7]
  RVMI, RV/(LV+S): 48.4±1.0%
  RVSP: 60.4±5.0 mmHg
[3]
  bioavailability: about 41%

## COC(=O)c1ccc2c(c1)NC(=O)/C2=C(\Nc1ccc(N(C)C(=O)CN2CCN(C)CC2)cc1)c1ccccc1 [BIBF, Nintedanib, reference compound]
IPF rats; 50 mg/kg gavage once a day
  Left lung volume: 1736.9 ± 136.10 mm^3
  Left lung weight: 1.58 ± 0.12 g
IPF rats; 50 mg/kg
  alveolar tissue structure in left lung pulmonary fibrosis lesions (HE staining): some of the alveolar structures in the fibrotic lesions were still damaged
  alveolar tissue structure in left lung pulmonary fibrosis lesions (Masson Trichrom staining): some of the alveolar structures in the fibrotic lesions disappeared
IPF rats; different doses, H&E and Masson Trichrom staining
  left lung pulmonary fibrosis lesions and lesion range vs the model group: no significant difference
IPF rats; left lung, 50 mg/kg
  Fibrosis area: 56.91 ± 4.19%
  Percentage of score (%) (≤3): 78.75 ± 4.79 %

## CCCCOC(=O)NS(=O)(=O)c1cccc(-c2nc3c(CCC)nn(C)c3c(=O)[nH]2)c1 [compound WYQ, 5-(2-H-5 (N-butoxycarbonylaminosulfonyl)phenyl)-1-methyl-3-propyl-1,6-dihydro-7H-pyrazolo [4,3-d]pyrimidin-7-one]
[4]; FaSSIF, 1 h
  crystal form change after XRPD assay (FC): yes
  pH: 6.5
[4]; FaSSIF, 4 h
  crystal form change after XRPD assay (FC): yes
  pH: 6.5
[4]; FaSSIF, 24 h
  crystal form change after XRPD assay (FC): yes
  pH: 6.6
[4]; FeSSIF, 1 h
  crystal form change after XRPD assay (FC): yes
  pH: 5.0
[4]; FeSSIF, 4 h
  crystal form change after XRPD assay (FC): yes
  pH: 5.0
[4]; FeSSIF, 24 h
  crystal form change after XRPD assay (FC): yes
  pH: 5.0
[4]; SGF, 1 h
  crystal form change after XRPD assay (FC): yes
  pH: 2.4
[4]; SGF, 4 h
  crystal form change after XRPD assay (FC): yes
  pH: 2.5
[4]; SGF, 24 h
  crystal form change after XRPD assay (FC): yes
  pH: 2.4
[4]; fasted-state simulated intestinal fluid (FaSSIF), FaSSIF, 1 h
  solubility at 1 h: 1900 µg/mL (≈ 4250 µM)
[4]; fasted-state simulated intestinal fluid (FaSSIF), FaSSIF, 4 h
  solubility at 4 h: 1900 µg/mL (≈ 4250 µM)
[4]; fasted-state simulated intestinal fluid (FaSSIF), FaSSIF, 24 h
  solubility at 24 h: 2000 µg/mL (≈ 4470 µM)
[4]; fed-state simulated intestinal fluid (FeSSIF), FeSSIF, 1 h
  solubility at 1 h: 160 µg/mL (≈ 358 µM)
[4]; fed-state simulated intestinal fluid (FeSSIF), FeSSIF, 4 h
  solubility at 4 h: 160 µg/mL (≈ 358 µM)
[4]; fed-state simulated intestinal fluid (FeSSIF), FeSSIF, 24 h
  solubility at 24 h: 160 µg/mL (≈ 358 µM)
[4]; simulated gastric fluid (SGF), simulated gastric fluid, SGF, 1 h
  solubility at 1 h: 5.6 µg/mL (≈ 12.5 µM)
[4]; simulated gastric fluid (SGF), simulated gastric fluid, SGF, 4 h
  solubility at 4 h: 6 µg/mL (≈ 13.4 µM)
[4]; simulated gastric fluid (SGF), simulated gastric fluid, SGF, 24 h
  solubility at 24 h: 6.9 µg/mL (≈ 15.4 µM)
[4]; water, 1 h
  solubility at 1 h: 2200 µg/mL (≈ 4920 µM)
  crystal form change after XRPD assay (FC): yes
  pH: 7.7
[4]; water, 4 h
  solubility at 4 h: 1800 µg/mL (≈ 4020 µM)
  crystal form change after XRPD assay (FC): yes
  pH: 7.9
[4]; water, 24 h
  solubility at 24 h: 2200 µg/mL (≈ 4920 µM)
  crystal form change after XRPD assay (FC): yes
  pH: 7.6
[5]; 25° C./60% RH
  decrease in purity after one week of placement: No significant decrease
[5]; 25° C./60% RH, one week
  HPLC purity: Purity after placement: 97.17 area %
  Purity after placement/Starting purity: 99.8%
  Crystal form change: unchanged
[5]; 40° C./75% RH, one week
  decrease in HPLC purity (area %): about 1%
  HPLC purity: Purity after placement: 96.30 area %
  Purity after placement/Starting purity: 98.9%
  Crystal form change: changed

## CN1CC(=O)N2[C@H](c3ccc4c(c3)OCO4)c3[nH]c4ccccc4c3C[C@@H]2C1=O [Tadalafil, reference compound]
PAH rats [1]; Tadalafil group 10 mg·kg^−1d^−1, over 30 minutes after gavage
  rats showing penile erection: 80%
PAH rats [2]; [8]
  RVMI, RV/(LV+S): 41.8±1.9%
  RVSP: 52.5±2.4 mmHg
[3]
  biological half-life: approximately 17.5 hours
